Results published in article PMC6744417, “ALKBH overexpression in head and neck cancer: potential target for novel anticancer therapy” (Scientific Reports, 2019).
Where two headings read alike, the source gives them in different places.

Assays:
[1] = target: T1, EcAlkB (Escherichia coli, UniProt P05050); experiment: In vitro inhibition assay of demethylation activity (HPLC), AlkB; format: biochemical
T1 construct: made in house
Procedure: (§1) For EcAlkB, ALKBH3, and FTO, the inhibitory effect was further quantified by measuring inhibition of demethylation activity in vitro (Fig. 6D). […]. The reactions were carried out for 30 min at 37 °C in 20 µl of 50 mM Tris-HCl pH 7.5 with 1 mM DTT, 100 µM Fe(NH4)2(SO4)2, 50 µM 2OG, and 100 nM of AlkB or ALKBH3, 25 µM of substrate, and different concentrations of indicated inhibitors. […]. Modified and unmodified (repaired) products were separated and analyzed on Knauer HPLC system with C18 column (Waters NovaPak). The mobile phase binding buffer (20 mM TEAA) and elution buffer (acetonitrile) were mixed and flown at a rate of 1 ml/min. The detection wavelength was 260 nm.

[2] = target: T2, ALKBH3 (Homo sapiens, UniProt Q96Q83); experiment: In vitro inhibition assay of demethylation activity (HPLC), ALKBH3; format: biochemical
T2 construct: made in house
T2 sequence (Q96Q83 1-286): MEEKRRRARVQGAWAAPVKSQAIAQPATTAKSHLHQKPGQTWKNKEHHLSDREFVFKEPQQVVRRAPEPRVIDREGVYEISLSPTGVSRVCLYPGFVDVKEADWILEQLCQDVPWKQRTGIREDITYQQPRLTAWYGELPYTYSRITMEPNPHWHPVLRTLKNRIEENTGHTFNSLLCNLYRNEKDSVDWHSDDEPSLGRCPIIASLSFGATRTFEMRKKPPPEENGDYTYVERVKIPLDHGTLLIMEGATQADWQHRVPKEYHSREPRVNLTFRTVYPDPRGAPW
Procedure: as §1

[3] = target: T3, FTO (Homo sapiens, UniProt Q9C0B1); experiment: FTO N6meA demethylation Chemiluminescent Assay Kit; format: biochemical; details: FTO 330 nM; N6meA on RNA; read-out: IC50 (Enzyme: FTO 330nM; Substrate: N6meA)
T3 construct: His; made in house; host or cells: E. coli BL-21
T3 sequence (Q9C0B1 whole entry): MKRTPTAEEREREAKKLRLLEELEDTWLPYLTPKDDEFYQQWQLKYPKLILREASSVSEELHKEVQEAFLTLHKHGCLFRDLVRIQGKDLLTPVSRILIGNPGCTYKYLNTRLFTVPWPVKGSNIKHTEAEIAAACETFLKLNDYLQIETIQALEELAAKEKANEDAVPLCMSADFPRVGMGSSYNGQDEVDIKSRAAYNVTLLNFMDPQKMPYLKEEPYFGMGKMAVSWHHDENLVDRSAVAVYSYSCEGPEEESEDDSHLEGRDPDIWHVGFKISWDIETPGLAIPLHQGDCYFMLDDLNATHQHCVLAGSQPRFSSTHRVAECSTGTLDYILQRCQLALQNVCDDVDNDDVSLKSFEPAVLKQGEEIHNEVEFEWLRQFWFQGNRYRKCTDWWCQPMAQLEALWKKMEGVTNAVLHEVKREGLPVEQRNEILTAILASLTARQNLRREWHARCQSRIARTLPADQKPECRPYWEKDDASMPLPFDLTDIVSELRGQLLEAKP
Procedure: To measure the activity of obtained by us FTO protein, Chemiluminescent Assay Kit was used (BPS Bioscience). As a substrate, we used N^6meA modification on RNA. The reactions were carried out according to the manufacturer’s protocol. Chemiluminescence was measured using the plate reader Synergy HT (Bio Tek) with 1 sec of integration time and 100 ms of delay after plate movement.

[4] = target: T3, FTO; experiment: Thermal shift assay for ligand binding, FTO holo form; details: FTO holo form (2OG, Mn2+), 5 µM compound; holo form alone 52.8 ± 0.6 °C
Procedure: (§2) We tested the affinity of our newly synthesized anthraquinones, 7-chloroemodin and 5,7-dichloroemodin, (Fig. S13) for ALKBH3 and FTO and assessed their effect on the enzymatic activity of targeted proteins using the thermal shift assay (TSA). The thermodynamic parameters for thermal denaturation of both proteins were measured for their holo forms, in the presence of 2OG and Mn^2+, an analogue of Fe^2+.
(§3) The assay was developed previously to monitor ligand binding to AlkB[36]. Fluorescence experiments were performed using a Varian Cary Eclipse spectrofluorimeter. Emission was monitored at 345 nm (excitation at 280 nm) over a temperature range of 40-95 °C with heating rate of 1 °C/min. The protein samples were dissolved in HEPES buffer at pH 7.5 with 2 mM dithiotreitol (DTT) and 150 mM NaCl to a final concentration of 1.2 µM. The process of thermal unfolding was performed at a concentration of 5 µM of the tested compound, either in the presence or absence of cofactors (50 µM 2OG and 100 µM Mn(II)). The thermal unfolding of the holo form of the protein was always monitored and further used as the reference. All the calculations were performed using Origin 9.0 software, assuming the simplest model of two-state (Folded-Unfolded) transition.

[5] = system: EUFA30 cells; experiment: Alamar Blue viability assay, EUFA30; format: cell-based, human; details: normal fibroblast cells, 48 h of treatment
Procedure: (§4) Exponentially growing cells at the density of 3 × 10^3 cells/well were seeded onto a 96-well plate, cultured for 18 h followed by the respective treatment of antraquinones or its derivatives in various concentrations or 34 nM RNA interference of ALKBH proteins, and then cultured for a an additional 48 h. Alamar Blue (Invitrogen) viability assay was performed according to manufacturer’s protocol: after 4 h incubation, emission at 590 nm was measured with excitation at 560 nm using a scanning multiwall multimode spectrophotometer (DTX 880, Beckman Coulter). The experiment was carried out at least three times, with three replicates for each inhibitor concentration. After background subtraction, inhibition rates, IC50, values were calculated as the concentration of the component that inhibits cell growth by 50%. All the calculations were done using Origin 9.0 software.

[6] = system: HeLa cells; experiment: Alamar Blue viability assay, HeLa; format: cell-based, human; details: 48 h of treatment
Procedure: (§5) Alamar Blue (Invitrogen) viability assay was performed according to manufacturer’s protocol: after 4 h incubation, emission at 590 nm was measured with excitation at 560 nm using a scanning multiwall multimode spectrophotometer (DTX 880, Beckman Coulter). The experiment was carried out at least three times, with three replicates for each inhibitor concentration. […] All the calculations were done using Origin 9.0 software.

[7] = system: HEK293 cells; experiment: Alamar Blue viability assay, HEK293; format: cell-based, human; details: 48 h of treatment
Procedure: as §5

[8] = system: U87 cells; experiment: Alamar Blue viability assay, U87; format: cell-based, human; details: 48 h of treatment
Procedure: as §4

[9] = system: BICR18 cells; experiment: Alamar Blue viability assay, BICR18; format: cell-based, human; details: 48 h of treatment
Procedure: as §5

[10] = system: HeLa cells; experiment: Flow cytometry Annexin V-FITC / propidium iodide, HeLa; format: cell-based, human; details: 48 h, untreated control 10.8%
Procedure: (§6) Silencing was performed using the lipofectamine RNAiMAX reagent (Invitrogen) and ready-to-use siRNA mixture (Santa Cruz Biotechnology) composed of at least two different siRNAs targeting the same gene, to knock down ALKBH1, 2, 3, 4, 5, 8, and FTO (Supplementary Table 2). 1 × 10^6 cells were seeded onto a 100 mm diameter dishes. After 24 h of incubation, siRNAs mixtures (with lipofectamine, in OPTI-MEM medium) were added. After 48 h, cells were collected for WB or flow cytometry analysis. For WB analysis, adherent cells were rinsed three times with PBS, scraped, and centrifuged (800 x g, 10 min, 4 °C). Next, cells were re-suspended in 100 μL RIPA buffer with a 1 x mammalian protease inhibitor cocktail (Sigma-Aldrich). The resulting lysates were spun down at 30 130 x g to remove insoluble particles, assayed for protein content using the Bradford assay, and loaded onto the SDS-PAGE at the protein amount of 20 μg per line. The strength of WB signals corresponding to the particular ALKBHs were calculated by densitometry. The expression changes by 30% were considered as significant.
(§7) The Annexin V-FITC apoptosis detection kit (ApoAlert Annexin V-FITC Apoptosis Kit, TaKaRa) was used to detect apoptosis by flow cytometry. Cells were seeded at 6-well plates at concentration of 5 × 10^5 cells/well, cultured for 18 h, and then the tested agent was applied for the indicated periods. Afterward, cells were washed with PBS, resuspended in binding buffer, and anti-Annexin V FITC-conjugated antibody and propidium iodide were added to 100 µl aliquots. The mixtures were incubated for 15 min at room temperature, supplemented with binding buffer to 500 µl, and processed using BD FACSCalibur (BD Biosciences). Data were analyzed in Flowing Software version 2.5.1 (Flowing Software, http://www.uskonaskel.fi/flowingsoftware).

[11] = system: HeLa cells; parameters: method as in ref 32 (Varela-Ramirez and co-workers 2011); details: ref 32 (Varela-Ramirez and co-workers 2011); cited from earlier work
[12] = target: T2, ALKBH3; experiment: Thermal shift assay for ligand binding, ALKBH3 holo form; details: ALKBH3 holo form (2OG, Mn2+), 5 µM compound; result in words
Procedure: as §2, §3

[13] = system: EUFA30 cells; experiment: Flow cytometry Annexin V-FITC / propidium iodide, EUFA30; format: cell-based, human; details: EUFA30, 500 μM, 48 h
Procedure: as §6, §7

[14] = system: ALKBH3; parameters: method as in ref 14 (Li and co-workers 2016); details: ref 14 (Li and co-workers 2016); read-out: IC50 against ALKBH3; cited from earlier work
[15] = system: U87 cells; parameters: method as in ref 14 (Li and co-workers 2016); details: ref 14 (Li and co-workers 2016); cited from earlier work
[16] = EcAlkB 100 nM, 3meC on TT(3meC)TT pentamer, 30 min 37 °C, read-out: IC50 (Enzyme: EcAlkB 100nM; Substrate: 3meC)
[17] = ALKBH3 100 nM, 3meC on TT(3meC)TT pentamer, 30 min 37 °C, read-out: IC50 (Enzyme: ALKBH3 100nM; Substrate: 3meC)

T1 sequence (P05050 whole entry): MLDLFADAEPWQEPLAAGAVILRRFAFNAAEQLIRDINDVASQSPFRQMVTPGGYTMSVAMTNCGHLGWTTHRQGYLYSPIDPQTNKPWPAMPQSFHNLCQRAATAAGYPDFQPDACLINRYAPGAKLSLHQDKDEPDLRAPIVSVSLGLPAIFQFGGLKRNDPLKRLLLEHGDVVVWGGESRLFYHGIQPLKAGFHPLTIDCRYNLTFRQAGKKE

Row | Structure (SMILES) | IC50 [1, 16] | IC50 [2, 17] | IC50 [3] | binding to ALKBH3 judged by increase of melting temperature [12] | IC50 [1] | IC50 ([5]; Homo sapiens) | IC50 ([6]; Homo sapiens, HeLa) | IC50 ([7]; Homo sapiens, HEK293) | IC50 ([8]; Homo sapiens, U-87 MG) | IC50 ([9]; Homo sapiens) | also measured
1 | Cc1cc2c(c(O)c1Cl)C(=O)c1c(O)cc(O)cc1C2=O [7-Chloroemodin] | 19.8 µM | 116000 ± 7000 nM | 28.1 µM |  |  |  |  |  |  |  | melting temperature of FTO-ligand complex [4]: 71.5 ± 0.2 °C; IC50 [5]: 163 µM; IC50 [6]: 33.8 µM; IC50 [7]: 180 µM; IC50 [8]: 120 µM; IC50 [9]: 99.5 µM; number of necrotic HeLa cells ([10]; 25 μM): 18.8%; number of necrotic HeLa cells ([10]; 100 μM): 37.6%
2 | [CH3][Sn]([Cl])([c]1ccccc1)[c]1ccccc1 [DPMT, diphenylmethyltin chloride] |  |  |  |  |  |  |  |  |  |  | necrosis on HeLa cells [11]: more than 40 % of cells
3 | Cc1c(Cl)c(O)c2c(c1Cl)C(=O)c1cc(O)cc(O)c1C2=O [5,7-Dichloroemodin] | 16.4 µM | 176000 ± 6000 nM | 42.1 ± 6.5 µM | slightly more weakly |  |  |  |  |  |  | melting temperature of FTO-ligand complex [4]: 67.4 ± 0.1 °C; IC50 [5]: 102 µM; IC50 [6]: 10.6 µM; IC50 [7]: 87.3 µM; IC50 [8]: 158 µM; IC50 [9]: 39.8 µM; number of necrotic HeLa cells ([10]; 25 μM): 69.2%; number of necrotic HeLa cells ([10]; 100 μM): 83.1%
4 | O=C1c2cccc(O)c2C(=O)c2c(O)cc(CO)cc21 [Aloe-Emodin] |  | 8800 nM | 52 ± 12.6 µM | slightly more weakly | 230 ± 100 µM | 380 µM | 26 µM | > 1000 µM | > 1000 µM | 57.5 µM | cytotoxicity against HEK293 [7]: not cytotoxic; cytotoxicity against U87 [8]: not cytotoxic
5 | Cc1c(C(=O)O)c(O)cc2c1C(=O)c1c(O)c([C@@H]3O[C@H](CO)[C@@H](O)[C@H](O)[C@H]3O)c(O)c(O)c1C2=O [Carminic Acid, Carminic acid] | 170 ± 70 µM | 111000 ± 7000 nM | 25.3 ± 2.2 µM |  |  | 311 µM | 387 µM | 219 µM | 258 µM | 305 µM | 
6 | Cc1cc(O)c2c(c1)C(=O)c1cc(O)cc(O)c1C2=O [Emodin] |  | 540000 ± 160000 nM | 49.4 ± 19 µM | slightly more weakly | 520 ± 100 µM | 138 µM | 110 µM |  | 42.7 µM | 81.1 µM | 
7 | O=C(O)c1cc(O)c2c(c1)C(=O)c1cccc(O)c1C2=O [Rhein] |  |  |  | strongest ligand | 20.5 µM | 423 µM | 126 µM | 157 µM | > 1000 µM | 89.4 µM | IC50 ([2]; as printed in text in nM, 3meC substrate, read-out: IC50 against ALKBH3): 40 nM; increase of early apoptosis stage compared to untreated control [13]: approximately 2 fold; increase of late apoptosis compared to untreated control [13]: 15 fold; increase of necrosis compared to untreated control [13]: 11 fold; IC50 [14]: 5.3 µM; cytotoxic effect against U87 cells [15]: did not found any cytotoxic effect
